Data taken from ChEMBL document CHEMBL1128908, “Synthesis and biological evaluation of 2,3-diarylthiophenes as selective cox-2 inhibitors. part II: Replacing the heterocycle” (Bioorg Med Chem Lett, 1996).

Columns and labels:
[1] = target: T1, Prostaglandin G/H synthase 2 (Homo sapiens, UniProt P35354); assay: biochemical; assay type: cell-based, Sf9, Microsomes
T1 sequence (P35354 whole entry): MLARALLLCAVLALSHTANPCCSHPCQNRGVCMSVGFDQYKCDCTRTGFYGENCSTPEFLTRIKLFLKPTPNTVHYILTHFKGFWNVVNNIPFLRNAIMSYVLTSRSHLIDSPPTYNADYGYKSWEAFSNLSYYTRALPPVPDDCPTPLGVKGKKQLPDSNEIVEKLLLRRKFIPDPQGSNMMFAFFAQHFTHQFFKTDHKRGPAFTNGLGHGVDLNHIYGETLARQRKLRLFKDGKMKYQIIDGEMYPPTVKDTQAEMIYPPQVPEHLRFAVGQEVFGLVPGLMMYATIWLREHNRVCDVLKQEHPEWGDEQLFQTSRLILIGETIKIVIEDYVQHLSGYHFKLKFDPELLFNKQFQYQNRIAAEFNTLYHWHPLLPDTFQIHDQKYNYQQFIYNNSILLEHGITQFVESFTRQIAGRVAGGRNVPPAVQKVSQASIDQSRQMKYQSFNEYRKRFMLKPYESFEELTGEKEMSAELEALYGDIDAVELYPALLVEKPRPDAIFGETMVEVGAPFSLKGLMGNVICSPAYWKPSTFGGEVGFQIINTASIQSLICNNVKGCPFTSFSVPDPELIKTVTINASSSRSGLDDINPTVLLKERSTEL
Description: Inhibitory activity against human recombinant Prostaglandin G/H synthase 2 expressed in microsomes taken from baculovirus infected Sf9 cells

[2] = target: Prostaglandin G/H synthase 1 (Homo sapiens, UniProt P23219); assay: biochemical; assay type: cell-based, Sf9, Microsomes
Description: Inhibitory activity against human recombinant Prostaglandin G/H synthase 1 expressed in microsomes taken from baculovirus infected Sf9 cells

[3] = system: Rattus norvegicus; assay: Compound was evaluated in vivo for effect on gastrointestinal integrity(GI) in rats using [51Cr]- assay: causes lesions; assay type: functional, organism-based
[4] = system: Rattus norvegicus; assay: Compound was evaluated in vivo for potency against rat paw edema model; assay type: functional
[5] = system: Rattus norvegicus; assay: Compound was evaluated in vivo for effect on gastrointestinal integrity(GI) in rats using [51Cr]- assay: no lesions observed; assay type: functional, organism-based
[6] = Plasma concentration at 2 hr in rats was evaluated.; assay type: ADME, organism-based; conditions: rat
[7] = system: Rattus norvegicus; assay: Compound was evaluated in vivo for effect on gastrointestinal integrity (GI) in rats using [51Cr]- assay: causes lesions; assay type: functional, organism-based

Chain of Prostaglandin G/H synthase 1 (P23219 whole entry): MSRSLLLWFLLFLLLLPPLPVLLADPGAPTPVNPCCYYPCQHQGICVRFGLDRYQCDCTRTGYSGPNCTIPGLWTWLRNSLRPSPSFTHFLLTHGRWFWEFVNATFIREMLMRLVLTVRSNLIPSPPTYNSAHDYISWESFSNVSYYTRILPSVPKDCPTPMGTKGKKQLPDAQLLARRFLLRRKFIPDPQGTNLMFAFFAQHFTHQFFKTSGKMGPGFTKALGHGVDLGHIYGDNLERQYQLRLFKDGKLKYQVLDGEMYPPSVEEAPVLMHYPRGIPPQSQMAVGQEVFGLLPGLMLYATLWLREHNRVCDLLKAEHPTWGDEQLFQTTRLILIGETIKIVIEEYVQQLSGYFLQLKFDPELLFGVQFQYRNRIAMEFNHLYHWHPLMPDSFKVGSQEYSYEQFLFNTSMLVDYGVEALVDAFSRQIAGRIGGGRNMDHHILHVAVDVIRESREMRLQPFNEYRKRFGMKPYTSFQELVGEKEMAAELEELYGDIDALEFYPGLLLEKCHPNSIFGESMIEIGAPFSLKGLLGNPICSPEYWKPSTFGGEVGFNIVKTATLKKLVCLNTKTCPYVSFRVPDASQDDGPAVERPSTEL

SMILES	IC50 [1] [µM]	IC50 [2] [µM]	other results
CS(=O)(=O)c1ccc(C2=C(c3ccc(F)cc3)C3CCC2C3)cc1 (stereo unspecified)	30	> 50	
CS(=O)(=O)c1ccc(-c2ncoc2-c2ccc(F)cc2)cc1	> 30	> 100	
CS(=O)(=O)c1ccc(-n2nnnc2-c2ccc(F)c(F)c2)cc1	> 30	> 100	
CS(=O)(=O)c1ccc(-c2cc(C(F)(F)F)nn2-c2ccc(F)cc2)cc1	1.2	> 1.1	
CS(=O)(=O)c1ccc(-c2c(-c3ccc(F)cc3)csc2Br)cc1	> 30	> 50	
Cc1nc(-c2ccc(F)cc2)c(-c2ccc(S(C)(=O)=O)cc2)s1	0.31	> 100	
CS(=O)(=O)c1ccc(-c2ocnc2-c2ccc(F)cc2)cc1	> 30	> 100	
Cc1nc(-c2ccc(S(C)(=O)=O)cc2)c(-c2ccc(F)cc2)s1	0.31	> 100	
COc1ccc2c(c1)c(CC(=O)O)c(C)n2C(=O)c1ccc(Cl)cc1 [INDOMETHACIN]			growth inhibition (GI) [3]: Causes lesions; ED50 [4]: 2 mg/kg
CS(=O)(=O)c1ccc(-c2sncc2-c2ccc(F)cc2)cc1	5.1	> 100	
CS(=O)(=O)c1ccc(-c2csc(Br)c2-c2ccc(F)cc2)cc1		1.2	
CS(=O)(=O)c1ccc(-c2c(-c3ccc(F)cc3)csc2CC(=O)O)cc1	> 10	> 50	
CS(=O)(=O)c1ccc(-c2nnnn2-c2ccc(F)c(F)c2)cc1	> 30	> 50	
CS(=O)(=O)c1ccc(-c2snnc2-c2ccc(F)cc2)cc1	6.5	> 100	growth inhibition (GI) [5]: no lesions observed; concentration at 2 h [6]: 12800 ng/mL; ED50 [4]: 0.7 mg/kg
CS(=O)(=O)c1ccc(-c2[nH]cnc2-c2ccc(F)cc2)cc1	> 30	> 100	
CC(C)(O)c1scc(-c2ccc(S(C)(=O)=O)cc2)c1-c1ccc(F)cc1	5.9	> 50	
CS(=O)(=O)c1ccc(-c2cnsc2-c2ccc(F)cc2)cc1	2.1	> 100	concentration at 2 h [6]: 2200 ng/mL; ED50 [4]: 10 mg/kg
CS(=O)(=O)c1ccc(-c2csc(CC(=O)O)c2-c2ccc(F)cc2)cc1	> 10	> 50	
CS(=O)(=O)c1ccc(-c2[nH]nnc2-c2ccccc2)cc1	> 30	> 50	
CC(C)(O)c1scc(-c2ccc(F)cc2)c1-c1ccc(S(C)(=O)=O)cc1	> 30	> 50	
CS(=O)(=O)c1ccc(-c2cscc2-c2ccc(F)cc2)cc1	0.47	> 100	
CS(=O)(=O)c1ccc(-c2oc(=O)oc2-c2ccccc2)cc1	> 30	> 50	
CS(=O)(=O)c1ccc(-c2cc(Br)sc2-c2ccc(F)cc2)cc1 [DUP-697]			concentration at 2 h [6]: 700 ng/mL; ED50 [4]: 1.3 mg/kg; growth inhibition (GI) [7]: causes lesions
